Test results: paper PMC10041525, “New Dual Inhibitors of Bacterial Topoisomerases with Broad-Spectrum Antibacterial Activity and In Vivo Efficacy against Vancomycin-Intermediate Staphylococcus aureus” (Journal of Medicinal Chemistry, 2023)
≈ marks a conversion by molar mass, not a printed value. Where “and” joins values, the source holds several entries; their conditions need not be identical. Identical values can stand only once. Like-named read-outs stand apart in the source and are kept apart here.

What was measured:
[1] = tested on: E. faecium (n = 13); assay: MIC broth microdilution at IHMA Europe; assay type: cell-based; settings: Enterococcus faecium
[2] = tested on: Haemophilus influenzae (n = 14); assay: MIC broth microdilution at IHMA Europe; assay type: cell-based, H. influenzae; settings: for MIC: Haemophilus influenzae
[3] = tested on: S. pneumoniae ATCC 49619; parameters: method as in earlier work; settings: QC range for S. pneumoniae ATCC 49619, ref CLSI; cited from earlier work
[4] = tested on: P. aeruginosa ATCC 27853; assay: IHMA QC MIC; assay type: cell-based
[5] = tested on: E. coli ATCC 25922; assay: IHMA QC MIC; assay type: cell-based
[6] = tested on: S. pneumoniae (n = 12); assay: MIC broth microdilution at IHMA Europe; assay type: cell-based; settings: for MIC: Streptococcus pneumoniae
[7] = tested on: H. influenzae ATCC 49247; assay: IHMA QC MIC; assay type: cell-based
From the text: (§1) Supplement jm2c01905_si_004.xlsx, sheet "QC" | column: MIC [µg/mL]

[8] = tested on: E. faecalis ATCC 29212; assay: IHMA QC MIC; assay type: cell-based
From the text: as §1

[9] = tested on: S. pneumoniae ATCC 49619; assay: IHMA QC MIC; assay type: cell-based
From the text: as §1

[10] = tested on: H. influenzae ATCC 49766; assay: IHMA QC MIC; assay type: cell-based
From the text: as §1

[11] = tested on: E. faecalis ATCC 29212; parameters: method as in earlier work; settings: QC range for E. faecalis ATCC 29212, ref CLSI; cited from earlier work
[12] = molecular target: A. baumannii DNA gyrase (Acinetobacter baumannii, UniProt A0ABX6CA01); assay: gel-based supercoiling assay; assay type: biochemical
A. baumannii DNA gyrase, sequence (A0ABX6CA01 1-822): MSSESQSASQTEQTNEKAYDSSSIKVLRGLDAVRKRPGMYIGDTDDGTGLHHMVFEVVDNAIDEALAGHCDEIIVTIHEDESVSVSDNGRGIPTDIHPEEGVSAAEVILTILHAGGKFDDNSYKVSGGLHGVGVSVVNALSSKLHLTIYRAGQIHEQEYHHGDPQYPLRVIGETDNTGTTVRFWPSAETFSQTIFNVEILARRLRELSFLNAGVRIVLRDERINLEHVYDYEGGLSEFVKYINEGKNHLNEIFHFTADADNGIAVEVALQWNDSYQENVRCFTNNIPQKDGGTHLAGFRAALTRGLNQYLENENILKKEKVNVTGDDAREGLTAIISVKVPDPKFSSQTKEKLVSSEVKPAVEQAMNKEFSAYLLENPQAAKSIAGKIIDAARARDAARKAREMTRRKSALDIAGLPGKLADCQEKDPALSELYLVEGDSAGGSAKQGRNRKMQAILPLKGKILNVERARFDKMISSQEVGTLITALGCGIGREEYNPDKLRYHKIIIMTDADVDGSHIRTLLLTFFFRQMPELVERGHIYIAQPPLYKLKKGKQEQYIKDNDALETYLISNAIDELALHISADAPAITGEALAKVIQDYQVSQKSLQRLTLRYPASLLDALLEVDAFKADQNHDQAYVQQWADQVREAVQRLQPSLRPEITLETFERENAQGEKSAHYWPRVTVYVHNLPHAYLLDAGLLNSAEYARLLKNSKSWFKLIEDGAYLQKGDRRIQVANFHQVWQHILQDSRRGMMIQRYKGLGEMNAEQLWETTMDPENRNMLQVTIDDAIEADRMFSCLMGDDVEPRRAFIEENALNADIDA
A. baumannii DNA gyrase, sequence (A0ABX6CII0 1-904 partner): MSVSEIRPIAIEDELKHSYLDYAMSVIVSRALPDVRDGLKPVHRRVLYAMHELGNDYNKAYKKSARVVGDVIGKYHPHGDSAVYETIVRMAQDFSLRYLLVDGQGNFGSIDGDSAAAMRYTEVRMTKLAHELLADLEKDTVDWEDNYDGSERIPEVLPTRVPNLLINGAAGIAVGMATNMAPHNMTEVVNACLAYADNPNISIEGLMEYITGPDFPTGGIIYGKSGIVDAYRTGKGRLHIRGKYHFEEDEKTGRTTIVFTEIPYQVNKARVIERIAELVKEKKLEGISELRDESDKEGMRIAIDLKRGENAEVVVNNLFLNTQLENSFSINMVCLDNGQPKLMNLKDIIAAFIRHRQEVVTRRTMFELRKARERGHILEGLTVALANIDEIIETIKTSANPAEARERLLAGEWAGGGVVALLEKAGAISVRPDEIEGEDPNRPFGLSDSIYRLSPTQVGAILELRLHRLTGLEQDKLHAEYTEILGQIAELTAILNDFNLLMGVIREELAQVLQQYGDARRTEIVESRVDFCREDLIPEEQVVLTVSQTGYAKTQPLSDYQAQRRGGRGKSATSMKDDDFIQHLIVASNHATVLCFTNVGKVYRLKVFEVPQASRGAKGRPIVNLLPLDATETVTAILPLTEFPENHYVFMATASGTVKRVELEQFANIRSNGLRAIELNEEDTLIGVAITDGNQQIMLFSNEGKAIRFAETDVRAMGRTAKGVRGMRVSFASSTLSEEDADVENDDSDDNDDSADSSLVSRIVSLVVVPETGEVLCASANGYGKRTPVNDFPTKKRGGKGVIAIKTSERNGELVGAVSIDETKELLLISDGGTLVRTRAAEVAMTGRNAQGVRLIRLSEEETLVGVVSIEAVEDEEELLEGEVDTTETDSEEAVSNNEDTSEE
Procedure: In all experiments, the activity of the
enzymes was determined prior to the testing of the compound and 1 unit (U) was defined as the
amount of enzyme required to just fully supercoil or decatenate the substrate. This amount of
enzyme was initially used in determination of control inhibitor activity. These experiments were
performed in duplicate. […] The final DMSO
concentration was 1% for all assays. All measurements were performed in quadruplicates. The
condition for each reaction were as follows:
− S. aureus gyrase supercoiling assay
1 U of S. aureus gyrase was incubated with 0.5 µg of relaxed pBR322 DNA in a 30 µL reaction at
magnesium acetate, 10 mM DTT, 2 mM ATP, 500 mM potassium glutamate and 0.05 mg/mL
− S. aureus topo IV decatenation assay
1 U of S. aureus topo IV was incubated with 20 µg kDNA in a 30 µL reaction at 37 °C for 30
mM ATP, 350 mM potassium glutamate and 0.05 mg/mL albumin.
− A. baumannii gyrase supercoiling assay
1 U of A. baumannii gyrase was incubated with 0.5 µg of relaxed pBR322 DNA in a 30 µL reaction
blue), before being loaded on a 1.0% TAE gel run at 80V for 2 hours. Bands were visualised by
ethidium bromide staining for 20 minutes and destaining for 20 minutes. Gels were scanned using
documentation equipment (GeneGenius, Syngene, Cambridge, UK) and % inhibition levels were
measured by determining the relative fluorescence of the supercoiled band using gel scanning
software. […]

[13] = tested on: S. aureus (VISA) ATCC 700699; assay: MIC broth microdilution (CLSI); assay type: cell-based; settings: Staphylococcus aureus; read-out: MIC
In short: (§2)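 CLSI microdilution; cation-adj. MHBII; 5 × 10^4 cells/well, 100 μL; DMSO ≤0.64% (at 64 μg/mL); 37 °C, 150 rpm, 18 h; OD600 read; MIC = conc. with mean OD600 rise <1.5× background, n=3.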

[14] = tested on: S. aureus (MRSA) ATCC 43300; assay: MIC broth microdilution (CLSI); assay type: cell-based; settings: Staphylococcus aureus
In short: as §2

CN[C@H](CC(C)C)C(=O)N[C@H]1C(=O)N[C@@H](CC(N)=O)C(=O)N[C@H]2C(=O)N[C@H]3C(=O)N[C@H](C(=O)N[C@H](C(=O)O)c4cc(O)cc(O)c4-c4cc3ccc4O)[C@H](O)c3ccc(c(Cl)c3)Oc3cc2cc(c3O[C@@H]2O[C@H](CO)[C@@H](O)[C@H](O)[C@H]2O[C@H]2C[C@](C)(N)[C@H](O)[C@H](C)O2)Oc2ccc(cc2Cl)[C@H]1O [Vancomycin, vancomycin]
MIC ([1]; E. faecium IHMA N° 1764866): 16 µg/mL (≈ 11 µM)
MIC ([1]; E. faecium IHMA N° 1765436): 16 µg/mL (≈ 11 µM)
MIC ([1]; E. faecium IHMA N° 1765746): > 32 µg/mL
MIC ([1]; E. faecium IHMA N° 1893573): 32 µg/mL (≈ 22.1 µM)
MIC ([1]; E. faecium IHMA N° 1893846): > 32 µg/mL
MIC ([1]; E. faecium IHMA N° 1893942): 32 µg/mL (≈ 22.1 µM)
MIC ([1]; E. faecium IHMA N° 1894055): > 32 µg/mL
MIC ([1]; E. faecium IHMA N° 1897027): > 32 µg/mL
MIC ([1]; E. faecium IHMA N° 1897101): > 32 µg/mL
MIC ([1]; E. faecium IHMA N° 1904592): > 32 µg/mL
MIC ([1]; E. faecium IHMA N° 2075051): 16 µg/mL (≈ 11 µM)
MIC ([1]; E. faecium IHMA N° 2077718): > 32 µg/mL
MIC ([1]; E. faecium IHMA N° 2083787): > 32 µg/mL
No. of isolates at MIC [2]: 5 and 9
MIC ([2]; H. influenzae IHMA N° 1227715): > 32 µg/mL
MIC ([2]; H. influenzae IHMA N° 1241620): > 32 µg/mL
MIC ([2]; H. influenzae IHMA N° 1244149): 32 µg/mL (≈ 22.1 µM)
MIC ([2]; H. influenzae IHMA N° 1249803): > 32 µg/mL
MIC ([2]; H. influenzae IHMA N° 1254355): 32 µg/mL (≈ 22.1 µM)
MIC ([2]; H. influenzae IHMA N° 1258580): > 32 µg/mL
MIC ([2]; H. influenzae IHMA N° 1262734): 32 µg/mL (≈ 22.1 µM)
MIC ([2]; H. influenzae IHMA N° 1272723): > 32 µg/mL
MIC ([2]; H. influenzae IHMA N° 1286846): > 32 µg/mL
MIC ([2]; H. influenzae IHMA N° 1337530): > 32 µg/mL
MIC ([2]; H. influenzae IHMA N° 1440085): > 32 µg/mL
MIC ([2]; H. influenzae IHMA N° 1479509): 32 µg/mL (≈ 22.1 µM)
MIC ([2]; H. influenzae IHMA N° 1952952): > 32 µg/mL
MIC ([2]; H. influenzae IHMA N° 2047461): 32 µg/mL (≈ 22.1 µM)
MIC, CLSI Range [3]: 0,12 - 0,5 µg/mL
MIC ([4]; Pseudomonas aeruginosa, ATCC27853): > 32 µg/mL
MIC ([4]; QC strain P. aeruginosa ATCC 27853, test date 2021-11-26): >32 µg/mL
MIC ([5]; Escherichia coli, ATCC25922): > 32 µg/mL
MIC ([5]; QC strain E. coli ATCC 25922, test date 2021-11-26): >32 µg/mL
No. of isolates at MIC [6]: 5 and 6
Cumulative % at MIC ([6]; MIC 1 µg/mL): 100.0%
No. of isolates at MIC ([6]; MIC 1 µg/mL): 1
MIC ([6]; S. pneumoniae IHMA N° 1775387): 0.25 µg/mL (≈ 0.173 µM)
MIC ([6]; S. pneumoniae IHMA N° 1776057): 0.25 µg/mL (≈ 0.173 µM)
MIC ([6]; S. pneumoniae IHMA N° 1785617): 0.12 µg/mL (≈ 0.0828 µM)
MIC ([6]; S. pneumoniae IHMA N° 1800765): 0.12 µg/mL (≈ 0.0828 µM)
MIC ([6]; S. pneumoniae IHMA N° 1811259): 0.12 µg/mL (≈ 0.0828 µM)
MIC ([6]; S. pneumoniae IHMA N° 1831562): 0.25 µg/mL (≈ 0.173 µM)
MIC ([6]; S. pneumoniae IHMA N° 1902609): 0.25 µg/mL (≈ 0.173 µM)
MIC ([6]; S. pneumoniae IHMA N° 1979675): 0.25 µg/mL (≈ 0.173 µM)
MIC ([6]; S. pneumoniae IHMA N° 1991963): 1 µg/mL (≈ 0.69 µM)
MIC ([6]; S. pneumoniae IHMA N° 2057487): 0.12 µg/mL (≈ 0.0828 µM)
MIC ([6]; S. pneumoniae IHMA N° 2073087): 0.25 µg/mL (≈ 0.173 µM)
MIC ([6]; S. pneumoniae IHMA N° 2117109): 0.12 µg/mL (≈ 0.0828 µM)
MIC ([7]; Haemophilus influenzae, ATCC49247): > 32 µg/mL
MIC ([7]; QC strain H. influenzae ATCC 49247, test date 2021-11-26): >32 µg/mL
MIC ([8]; Enterococcus faecalis, ATCC29212): 2 µg/mL (≈ 1.38 µM)
MIC ([8]; QC strain E. faecalis ATCC 29212, test date 2021-11-26): 2 µg/mL (≈ 1.38 µM)
MIC ([9]; QC strain S. pneumoniae ATCC 49619, test date 2021-11-26): 0.12 µg/mL (≈ 0.0828 µM)
MIC ([9]; Streptococcus pneumoniae, ATCC49619): 0.12 µg/mL (≈ 0.0828 µM)
MIC ([10]; Haemophilus influenzae, ATCC49766): > 32 µg/mL
MIC ([10]; QC strain H. influenzae ATCC 49766, test date 2021-11-26): >32 µg/mL
MIC, CLSI Range [11]: 1 to 4 µg/mL

CO[C@@H]1[C@@H](OC(N)=O)[C@@H](O)[C@H](Oc2ccc3c(O)c(NC(=O)c4ccc(O)c(CC=C(C)C)c4)c(=O)oc3c2C)OC1(C)C [novobiocin]
IC50 [12]: 2.17 ± 0.16 nM
MIC [13]: 0.0312 µg/mL
MIC [14]: 0.125 µg/mL
